# Reference: article PMC7140114 (Cancers, 2020)
# Numbered stars: 1 amine (or outer) side, 2 acyl side, 3 side chain; on linkers, the order of the positions; unused ones are H or OH. Square brackets hold non-standard residues; d marks the D form. Peptide text beside a SMILES is read from it. * marks the point of attachment. Dolaproine = CO[C@@H]([C@@H]1CCCN1)[C@@H](C)C(=O)O; X1 = N[C@@H](CSC1CC(=O)N(CCCCCC(=O)*)C1=O)C(=O)O; Dil = CC[C@H](C)[C@H](NC)[C@@H](CC(=O)O)OC; PABC = O=C(OCc1ccc(N[*:1])cc1)[*:2]; X2 = C[C@@H](N*)[C@@H](O)c1ccccc1; NMeV = CN[C@H](C(=O)O)C(C)C
# Assays:
# tubulin = assay: Tubulin polymerization inhibition assay (fluorescence-based kit); assay type: biochemical; details: tested at 0.1-30 μM; mean of triplicate
# Text: In this study, we used a molecular-level tubulin inhibition assay to rapidly assess the efficacy of ionized conjugates to circumvent the effects of the differences in membrane permeability. […] All of the tested Cys-linker-MMAE conjugates produced concentration-dependent inhibition of tubulin polymerization, providing a basis for developing ADCs with Cys-linker-MMAE as potent payloads.
# We used the Tubulin Polymerization Assay Kit (Cat. # BK011P, Cytoskeleton, Inc., Denver, CO, USA) according to the manufacturer’s instructions for this fluorescence-based test. Before this test, the linker-MMAE conjugates were added to an L-cysteine solution (0.3 mmol/L in H2O, 900 μL), and the mixture was incubated for 10 min at room temperature for the conversion to Cys-linker-MMAE conjugates according to previously reported methods.
# BT-474 cells = assay: In vitro cytotoxicity (CellTiter-Glo, 7 days), BT-474; assay type: cell-based, human; details: BT-474, HER2+++; for IC50: Homo sapiens, 168 h
# Description: (§1) Human HER2-positive cell lines (BT-474, HCC1954, and NCI-N87) and HER2-negative cell lines (MCF-7 and MDA-MB-468) were purchased from the ATCC. Tumor cells were cultured in Roswell Park Memorial Institute (RPMI)-1640 medium (Cellgro, Manassas, VA, USA) supplemented with 10% fetal bovine serum (Invitrogen, Carlsbad, CA, USA) and GlutaMAX (Invitrogen, Carlsbad, CA, USA). Cells (3.3 × 10^4 cells/well) were added to each well of 384-well plates and incubated at 37 °C overnight, after which 10 μL of compound aliquots were added to the assay plate. […] Then, the plates were removed from the incubator and equilibrated at room temperature for 10 min. The Cell Titer Glo® (CTG, Promega, Madison, WI, USA) reagents were incubated at 37 °C before the experiment. The buffer was equilibrated to room temperature and used to dissolve the substrate. Then, 40 μL of CTG reagent was added to each well for detection (at 1:1 ratio to the culture medium).
# HCC1954 cells = assay: In vitro cytotoxicity (CellTiter-Glo, 7 days), HCC1954; assay type: cell-based, human; details: HCC1954, HER2+++; for IC50: Homo sapiens, 168 h
# Description: as §1
# NCI-N87 cells = assay: In vitro cytotoxicity (CellTiter-Glo, 7 days), NCI-N87; assay type: cell-based, human; details: NCI-N87, HER2+++; for IC50: Homo sapiens, 168 h
# Description: as §1
# MCF-7 cells = assay: In vitro cytotoxicity (CellTiter-Glo, 7 days), MCF-7; assay type: cell-based, human; details: MCF-7, HER2−; for IC50: Homo sapiens, MCF7, 168 h
# Description: as §1
# MDA-MB-468 cells = assay: In vitro cytotoxicity (CellTiter-Glo, 7 days), MDA-MB-468; assay type: cell-based, human; details: MDA-MB-468, HER2−; for IC50: Homo sapiens, 168 h
# Description: as §1
# [1] = system: HER2-positive cell lines (BT-474, HCC1954, and NCI-N87) and HER2-negative cell lines (MCF-7, and MDA-MB-468); assay: In vitro cytotoxicity, summary over the cell line panel; assay type: cell-based, human; details: from Table 2 IC50 values
# Description: as §1
# cells (cellular level) = details: cited from earlier work
SMILES,EC50 (tubulin),Max. Inhibition (BT-474 cells),IC50 (BT-474 cells),Max. Inhibition (HCC1954 cells),IC50 (HCC1954 cells),IC50 (NCI-N87 cells),Max. Inhibition (NCI-N87 cells),IC50 (MCF-7 cells),Max. Inhibition (MCF-7 cells),IC50 (MDA-MB-468 cells),Max. Inhibition (MDA-MB-468 cells),Decrease in activity compared to MMAE in each cell line [1],IC50 (cells (cellular level))
CC[C@H](C)[C@@H]([C@@H](CC(=O)N1CCC[C@H]1[C@H](OC)[C@@H](C)C(=O)N[C@H](C)[C@@H](O)c1ccccc1)OC)N(C)C(=O)[C@@H](NC(=O)[C@H](C(C)C)N(C)C(=O)OCc1ccc(NC(=O)CCCCCN2C(=O)CC(SC[C@H](N)C(=O)O)C2=O)cc1)C(C)C (some centres unmarked) [Cys-15] ({X1-PABC}-[NMeV]V[Dil][Dolaproine]-X2),2320 nM,82.62%,6.88 nM,98.86%,2.31 nM,8.67 nM,94.86%,51.2 nM,91.13%,11.1 nM,85.75%,22–177 fold,–
"CCC(C)C(C(CC(=O)N1CCCC1C(OC)C(C)C(=O)NC(C)C(O)c1ccccc1)OC)N(C)C(=O)C(NC(=O)C(NC)C(C)C)C(C)C (centres unmarked) [MMAE, Monomethyl auristatin E]",1430 nM,79.09%,0.32 nM,97.54%,0.07 nM,0.07 nM,89.37%,0.29 nM,93.14%,0.17 nM,–,–,0.01 to 1 nM
